Paper PMC3413639 (PLoS ONE, 2012)
Several values for one entry are separate records, joined by “and”; a condition that tells them apart may be missing. Identical values can stand only once. Like-named read-outs stand apart in the source and are kept apart here.

Assays:
5-HT1A receptors [1] = molecular target: T1, 5-HT1A receptors (Rattus norvegicus, UniProt P19327); assay: Ex vivo ARG, 5-HT1A receptor occupancy after drug administration; assay type: in vivo; set-up: Twenty-micrometer-thick frozen brain sections were preincubated; from tissue; host or cells: rat brain (hippocampus and raphe nucleus): frozen sections or living animals; conditions: for ED50: rat, po, ex vivo ARG, read-out: ED50 (5-HT1A receptor occupancy)
T1 sequence (P19327 1-422): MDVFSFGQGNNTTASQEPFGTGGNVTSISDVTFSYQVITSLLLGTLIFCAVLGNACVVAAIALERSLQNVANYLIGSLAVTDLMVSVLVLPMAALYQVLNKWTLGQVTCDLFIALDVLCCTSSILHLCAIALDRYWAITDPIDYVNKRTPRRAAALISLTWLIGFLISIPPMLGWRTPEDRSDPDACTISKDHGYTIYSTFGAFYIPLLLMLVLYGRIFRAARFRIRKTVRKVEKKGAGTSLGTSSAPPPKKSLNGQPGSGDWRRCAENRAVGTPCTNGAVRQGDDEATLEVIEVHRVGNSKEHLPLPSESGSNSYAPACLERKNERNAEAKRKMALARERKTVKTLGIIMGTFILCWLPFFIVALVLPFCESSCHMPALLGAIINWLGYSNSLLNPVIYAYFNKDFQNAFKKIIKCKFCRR
Method: Animals were then killed by decapitation 5 h and 30 min after their administration, respectively. Autoradiographic analysis was performed using procedures similar to in vitro ARG except for incubation temperature (37°C) and times for preincubation (30 sec), incubation (5 min) and rinsing (1 min). […] The doses of these drugs at half-maximal effect (ED50) were determined according to the following relationship: [drawing 2] where D is the dose of the drug.

5-HT1A receptors [2] = molecular target: T1, 5-HT1A receptors; assay: [18F]MPPF PET, BPND and 5-HT1A receptor occupancy; assay type: in vivo; set-up: Rats were sacrificed by decapitation; Twenty-micrometer-thick frozen brain sections were preincubated; from tissue; host or cells: rat brain (hippocampus and raphe nucleus): frozen sections or living animals; conditions: mean ± S.E.; for receptor occupancy at 30 mg/kg: rat
5-HT1A receptors [3] = molecular target: T1, 5-HT1A receptors; set-up: method as in earlier work; conditions: rat hippocampal homogenates; read-out: Ki (in vitro estimate); cited from earlier work
5-HT1A receptors [4] = molecular target: T1, 5-HT1A receptors; assay: [11C]WAY-100635-PET, BPND and 5-HT1A receptor occupancy; assay type: in vivo; set-up: Twenty-micrometer-thick frozen brain sections were preincubated; from tissue; host or cells: rat brain (hippocampus and raphe nucleus): frozen sections or living animals; conditions: for BPND Hippocampus / BPND Raphe: [11C]WAY-100635, about 5 h before scan, mean ± S.E.; for receptor occupancy at 1 mg/kg / receptor occupancy at 3 mg/kg / receptor occupancy at 10 mg/kg / receptor occupancy at 30 mg/kg / receptor occupancy at 100 mg/kg: rat
Method: All PET scans were carried out using a microPET Focus 220 scanner (Siemens Medical Solutions USA, Knoxville, TN). The rats were anesthetized with 1.5–2% isoflurane in air (2 L/min flow rate). […] All list-mode data were stored into 3D sinograms, which were then Fourier-rebinned into 2D sinograms (26 frames: 4×1, 8×2, and 14×5 min). Images were reconstructed using 2D-filtered back-projection with a 0.5-mm Hanning filter. All PET images were manually coregistered to the MRI template by spatial translation and rotation of original PET images without geometric expansion and contraction. ROIs were placed on the hippocampus and raphe nucleus using PMOD® image analysis software (PMOD Group, Zurich, Switzerland) with reference to the MRI template. Fine-tuning of the location of ROIs was then performed based on PET images at an early phase (0–30 min) of the scan in order to compensate for small mismatches between coregistered PET and MR images. The cerebellum was used as reference tissue because of its negligible density of 5-HT1A receptors.

[5] = Brain-to-plasma ratio of Wf-516; assay type: in vivo; conditions: at the time of reaching maximal plasma concentration, unpublished data
5-HT1A receptors [6] = molecular target: T1, 5-HT1A receptors; assay: In vitro ARG, inhibition of [11C]WAY-100635 binding in rat brain sections; set-up: Twenty-micrometer-thick frozen brain sections were preincubated; from tissue; host or cells: rat brain (hippocampus and raphe nucleus): frozen sections or living animals; conditions: for Ki: 0.9 nM [11C]WAY-100635
Method: Rats were sacrificed by decapitation. Twenty-micrometer-thick frozen brain sections were preincubated for 30 min in 50 mM Tris-HCl (pH 7.4) containing 1 mM MnCl2. […] Subsequently, the sections were rinsed twice with ice-cold Tris-HCl buffer for 5 min and then desalted with ice-cold distilled water for 10 sec. These samples were warmly blow-dried and placed in contact with an imaging plate (Fuji Film, Tokyo, Japan) for 60 min. Signals on the imaging plate were detected by BAS5000 system (Fuji Film).

5-HT1A receptors [7] = molecular target: T1, 5-HT1A receptors; assay: [11C]WAY-100635-PET of rats treated with 5,7-DHT, a toxicant for 5-HT neurons; conditions: 30 mg/kg oral
5-HTTs = test system: 5-HTTs; set-up: method as in PMID 19236731; conditions: cited from earlier work
[8] = po, read-out: Occupancy (%) Hippocampus
[9] = po, read-out: Occupancy (%) Raphe

5-HT1A receptor binding (occupancy), dose-dependent up to (5-HT1A receptors [1]; oral, 5 h after administration, irrespective of region): approximately 80% | ED50 (5-HT1A receptors [1]; hippocampus): 5.3 mg/kg | ED50 (5-HT1A receptors [1]; raphe nucleus): 4.2 mg/kg | BPND Hippocampus (5-HT1A receptors [2]; 30 mg/kg): 1.100±0.015 | BPND Raphe (5-HT1A receptors [2]; 30 mg/kg): 0.227±0.027 | receptor occupancy at 30 mg/kg (5-HT1A receptors [2]; read-out: Occupancy (%) Hippocampus): 23.3 ± 1.5% | receptor occupancy at 30 mg/kg (5-HT1A receptors [2]; read-out: Occupancy (%) Raphe): 45.7 ± 6.5% | BPND Hippocampus (5-HT1A receptors [4]; 1 mg/kg oral): 5.612±0.356 | BPND Raphe (5-HT1A receptors [4]; 1 mg/kg oral): 2.128±0.109 | BPND Hippocampus (5-HT1A receptors [4]; 3 mg/kg oral): 5.589±0.410 | BPND Raphe (5-HT1A receptors [4]; 3 mg/kg oral): 2.024±0.097 | BPND Hippocampus (5-HT1A receptors [4]; 10 mg/kg oral): 4.937±0.550 | BPND Raphe (5-HT1A receptors [4]; 10 mg/kg oral): 1.620±0.126 | BPND Hippocampus (5-HT1A receptors [4]; 30 mg/kg oral): 4.836±0.441 | BPND Raphe (5-HT1A receptors [4]; 30 mg/kg oral): 1.271±0.194 | BPND Hippocampus (5-HT1A receptors [4]; 100 mg/kg oral): 4.962±0.400 | BPND Raphe (5-HT1A receptors [4]; 100 mg/kg oral): 1.212±0.073 | Difference in maximal occupancy between hippocampus and raphe nucleus (5-HT1A receptors [4]; oral, PET regression curves): more than 2.5 fold | Maximal occupancy as calculated by the regression curve (5-HT1A receptors [4]; raphe nucleus, oral, PET): 53.8% and ~50% | receptor occupancy at 1 mg/kg (5-HT1A receptors [4]; [8]): 7 ± 2.7% | receptor occupancy at 3 mg/kg (5-HT1A receptors [4]; [8]): 6.8 ± 7.1% | receptor occupancy at 10 mg/kg (5-HT1A receptors [4]; [8]): 18.8 ± 6% | receptor occupancy at 30 mg/kg (5-HT1A receptors [4]; [8]): 20.3 ± 4.1% | receptor occupancy at 100 mg/kg (5-HT1A receptors [4]; [8]): 17.8 ± 4.9% | receptor occupancy at 1 mg/kg (5-HT1A receptors [4]; [9]): 8.5 ± 7.6% | receptor occupancy at 3 mg/kg (5-HT1A receptors [4]; [9]): 13.2 ± 6.1% | receptor occupancy at 10 mg/kg (5-HT1A receptors [4]; [9]): 30.6 ± 6.4% | receptor occupancy at 30 mg/kg (5-HT1A receptors [4]; [9]): 46.3 ± 6.9% | receptor occupancy at 100 mg/kg (5-HT1A receptors [4]; [9]): 48.2 ± 3.3% | receptor occupancy at 3 mg/kg (5-HT1A receptors [4]; 3 mg/kg oral, PET, read-out: Difference in occupancy between hippocampus and raphe nucleus): ~100% | Kp [5]: ~2 | Blockage of 5-HT1A receptors by excess amounts of drug (5-HT1A receptors [6]; hippocampus and raphe nucleus, up to 1000 nM): near-complete blockage | Ki (5-HT1A receptors [6]; hippocampus): 8.1 nM | Ki (5-HT1A receptors [6]; raphe nucleus): 7.9 nM
SMILES: Cc1nnc(-c2cc3c(OC[C@@H](O)CN4CCC(c5ccc(Cl)c(Cl)c5)CC4)cccc3o2)o1.Cl [Wf-516, (2S)-1-[4-(3,4-dichlorophenyl)piperidin-1-yl]-3-[2-(5-methyl-1,3,4-oxadiazol-2-yl)benzo[b]furan-4-yloxy]propan-2-ol monohydrochloride]
Ki (5-HT1A receptors [3]): 7.4 nM | Change of BPND in 5,7-DHT-treated rats (5-HT1A receptors [7]; hippocampus, compared with baseline): significant decrease of BPND | Change of BPND in 5,7-DHT-treated rats (5-HT1A receptors [7]; raphe nucleus): no additional reduction of BPND | ED50 for blockade of 5-HTTs (5-HTTs; previous PET study): 3 mg/kg | Occupancy of 5-HTT among regions (5-HTTs; previous observation): homogenous among regions
